US5028731A, “Preparation of mixtures of cypermethrin or cyfluthrin isomers enriched in more active species” (FMC Corporation, priority 1989, dated 1991)
In brackets after ≈: the same amount, converted by molar mass. Like-named read-outs stand apart in the source and are kept apart here.

Experiments:
[1] = well known; c2, t2 pairs compared with c1 (III/IV) and t1 (VII/VIII) pairs; cited from earlier work
Tobacco Budworm = experiment: Foliar LC50 - Tobacco Budworm; assay type: in vivo; details: for LC50: Heliothis virescens
Source text: This increase in activity is illustrated in Table II in which the test insect is the economically important tobacco budworm.
Foliar LC50 (ppm) - Tobacco Budworm

CC1(C)[C@H](C=C(Cl)Cl)[C@H]1C(=O)O[C@H](C#N)c1cccc(Oc2ccccc2)c1 (relative stereo) [t2 enantiomer pair]
insecticidal activity [1]: more insecticidally active

CC1(C)[C@H](C=C(Cl)Cl)[C@H]1C(=O)O[C@H](C#N)c1cccc(Oc2ccccc2)c1 [V]
insecticidal activity [1]: most insecticidally active

CC1(C)C(C=C(Cl)Cl)C1C(=O)OC(C#N)c1cccc(Oc2ccccc2)c1 (racemic) [Example 1, (R,S)-(cyano)(3-phenoxyphenyl)methyl cis/trans-3-(2,2-dichloroethenyl)-2,2-dimethylcyclopropanecarboxylate]
LC50 (Tobacco Budworm; Average of Tests 1-3, read-out: Foliar LC50, Average): 13.2 µg/mL (≈ 31.7 µM) | LC50 (Tobacco Budworm; Test 1, read-out: Foliar LC50): 8.4 µg/mL (≈ 20.2 µM) | LC50 (Tobacco Budworm; Test 2, read-out: Foliar LC50): 18.7 µg/mL (≈ 44.9 µM) | LC50 (Tobacco Budworm; Test 3, read-out: Foliar LC50): 12.5 µg/mL (≈ 30 µM)

CC1(C)C(C=C(Cl)Cl)C1C(=O)OC(C#N)c1cccc(Oc2ccccc2)c1 (racemic) [Example 5, (R,S)-(cyano)(3-phenoxyphenyl)methyl cis/trans-3-(2,2-dichloroethenyl)-2,2-dimethylcyclopropanecarboxylate]
Foliar LC50, Average (Tobacco Budworm; Average of Tests 1-3): 9.9 ppm | Foliar LC50 (Tobacco Budworm; Test 1): 6.5 ppm | Foliar LC50 (Tobacco Budworm; Test 2): 12.3 ppm | Foliar LC50 (Tobacco Budworm; Test 3): 11.0 ppm

CC1(C)[C@H](C(=O)O[C@H](C#N)c2cccc(Oc3ccccc3)c2)[C@@H]1C=C(Cl)Cl (relative stereo) [c2 enantiomer pair]
insecticidal activity [1]: more insecticidally active

CC1(C)[C@H](C(=O)O[C@H](C#N)c2cccc(Oc3ccccc3)c2)[C@@H]1C=C(Cl)Cl [I, (S)-(cyano)(3-phenoxyphenyl)methyl 1R,cis-3-(2,2-dichloroethenyl)-2,2-dimethylcyclopropanecarboxylate]
insecticidal activity [1]: most insecticidally active
